Experiments:
[1] = Aqueous solubility of Compound 1; type: physicochemical; conditions: under acidic to neutral conditions
[2] = Lipophilicity (logP) of Compound 1; type: physicochemical

Cn1c(=O)n(CCCO)c(=O)c2c1nc(Oc1cccc(OC(F)(F)F)c1)n2Cc1ccc(Cl)cc1 [Compound 1, 7-(4-chlorobenzyl)-1-(3-hydroxypropyl)-3-methyl-8-(3-(trifluoromethoxy)-phenoxy)-3,7-dihydro-1H-purine-2,6-dione]
aqueous solubility [1]: low aqueous solubility | logP [2]: 5.2
